target: Nanoluciferase-BRD9 fusion protein (Homo sapiens (Human), UniProt Q9H8M2); assay: SYO1 BRD9 NanoLuc degradation assay; assay type: cell-based; settings: Table 5A; SYO-1 cells expressing 3×FLAG-NLuc-BRD9, 6 hours; read-out: SYO1 BRD9-NanoLuc degradation IC50
Description: Procedure: A stable SYO-1 cell line expressing 3×FLAG-NLuc-BRD9 was generated. On day 0 cells were seeded in 30 μL media into each well of 384-well cell culture plates. The seeding density was 8000 cells/well. […] Subsequently plates were incubated for 6 hours in a standard tissue culture incubator and equilibrated at room temperature for 15 minutes. Nanoluciferase activity was measured by adding 15 μL of freshly prepared Nano-Glo Luciferase Assay Reagent (Promega N1130), shaking the plates for 10 minutes and reading the bioluminescence using an EnVision reader.
DMSO treated cells are employed as High Control (HC) and 1 μM of a known BRD9 degrader standard treated cells are employed as Low Control (LC).

Chain of Nanoluciferase-BRD9 fusion protein (Q9H8M2 whole entry, the tested form may be a part): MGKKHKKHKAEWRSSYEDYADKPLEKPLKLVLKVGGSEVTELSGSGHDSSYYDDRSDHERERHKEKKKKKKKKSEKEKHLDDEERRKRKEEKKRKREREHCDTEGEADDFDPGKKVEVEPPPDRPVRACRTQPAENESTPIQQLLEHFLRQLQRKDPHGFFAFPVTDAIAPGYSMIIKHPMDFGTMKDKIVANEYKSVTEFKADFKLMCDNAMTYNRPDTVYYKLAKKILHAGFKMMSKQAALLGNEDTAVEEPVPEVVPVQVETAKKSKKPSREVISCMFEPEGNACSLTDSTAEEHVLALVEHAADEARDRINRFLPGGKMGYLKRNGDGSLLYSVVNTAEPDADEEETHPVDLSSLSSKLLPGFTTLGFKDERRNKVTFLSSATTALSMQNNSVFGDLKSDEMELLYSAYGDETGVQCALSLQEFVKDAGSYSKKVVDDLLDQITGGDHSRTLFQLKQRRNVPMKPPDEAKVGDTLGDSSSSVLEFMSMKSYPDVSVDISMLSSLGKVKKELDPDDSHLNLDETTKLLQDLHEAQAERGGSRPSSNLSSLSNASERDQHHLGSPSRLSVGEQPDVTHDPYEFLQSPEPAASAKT

Row | SMILES | DC50
1 | COc1cc(-c2cn(C)c(=O)c3cnccc23)cc(OC)c1CN1CC2(CC(C(=O)NCCCCCCNc3cccc4c3C(=O)N(C3CCC(=O)NC3=O)C4=O)C2)C1 (centres unmarked) [Compound D21] | > 1000 nM
2 | COc1cc(-c2cn(C)c(=O)c3cnccc23)cc(OC)c1CN1CC(S(=O)(=O)NCCOCCNc2cccc3c2C(=O)N(C2CCC(=O)NC2=O)C3=O)C1 (centres unmarked) [Compound D45, 1-[[2,6-dimethoxy-4-(2-methyl-1-oxo-2,7-naphthyridin-4-yl)phenyl]methyl]-N-[2-(2-[[2-(2,6-dioxopiperidin-3-yl)-1,3-dioxoisoindol-4-yl]amino]ethoxy)ethyl]azetidine-3-sulfonamide] | < 10 nM
3 | COc1cc(-c2cn(C)c(=O)c3cnccc23)cc(OC)c1CN1CC(OCc2cn(CCOc3ccc4c(c3)C(=O)N(C3CCC(=O)NC3=O)C4=O)nn2)C1 (centres unmarked) [Compound D61, 5-(2-(4-(((1-(2,6-dimethoxy-4-(2-methyl-1-oxo-1,2-dihydro-2,7-naphthyridin-4-yl)benzyl)azetidin-3-yl)oxy)methyl)-1H-1,2,3-triazol-1-yl)ethoxy)-2-(2,6-dioxopiperidin-3-yl)isoindoline-1,3-dione] | 10 to 100 nM
4 | COc1cc(-c2cn(C)c(=O)c3cnccc23)cc(OC)c1CN1CCC2(CC1)CC(NC(=O)CCOCCOc1cccc3c1C(=O)N(C1CCC(=O)NC1=O)C3=O)C2 (centres unmarked) [Compound D82] | 10 to 100 nM
5 | COc1cc(-c2cn(C)c(=O)c3cnccc23)cc(OC)c1CN1CC2(CC(C(=O)NCCCCCCCCNc3cccc4c3C(=O)N(C3CCC(=O)NC3=O)C4=O)C2)C1 (centres unmarked) [Compound D20] | < 10 nM

same assay, conditions: Table 5B; SYO-1 cells expressing 3×FLAG-NLuc-BRD9, 6 hours; read-out: SYO1 BRD9-NanoLuc degradation IC50

Row | SMILES | DC50
6 | COc1cc(-c2cn(C)c(=O)c3cnccc23)cc(OC)c1CN(C)CCCn1cc(COc2ccc3c(c2)C(=O)N(C2CCC(=O)NC2=O)C3=O)nn1 (centres unmarked) [Compound D282] | 100 to 1000 nM
7 | COc1cc(-c2cn(C)c(=O)c(C)c2C)cc(OC)c1CN1CCN(CCC2CCN(c3ccc4c(c3)CN(C3CCC(=O)NC3=O)C4=O)CC2)CC1 (centres unmarked) [Compound D362] | < 10 nM
8 | COc1cc(-c2cn(C)c(=O)c3cnccc23)cc(OC)c1CN1CCC(n2ccc(COc3ccc4c(c3)C(=O)N(C3CCC(=O)NC3=O)C4=O)n2)CC1 (centres unmarked) [Compound D323] | < 10 nM
9 | COc1cc(-c2cn(C)c(=O)c3cnccc23)cc(OC)c1CN1CCC(n2cc(CCOc3ccc4c(c3)C(=O)N(C3CCC(=O)NC3=O)C4=O)nn2)CC1 (centres unmarked) [Compound D279] | < 10 nM
10 | COc1cc(-c2cc(C)c(=O)n(C)c2)cc(OC)c1CN1CCC2(CCN(c3ccc4c(c3)C(=O)N(C3CCC(=O)NC3=O)C4=O)C2)C1 (centres unmarked) [Compound D336] | < 10 nM
11 | COc1cc(-c2cn(C)c(=O)c3cnccc23)cc(OC)c1CN(C)C(=O)CCCCNC1CC2(C1)CN(c1ccc3c(c1)C(=O)N(C1CCC(=O)NC1=O)C3=O)C2 (centres unmarked) [Compound D204] | < 10 nM
12 | COc1cc(-c2cn(C)c(=O)c3cnccc23)cc(OC)c1CN1CC(CC(=O)N2CCC3(CCN(c4ccc5c(c4)C(=O)N(C4CCC(=O)NC4=O)C5=O)C3)C2)C1 (centres unmarked) [Compound D192] | 100 to 1000 nM
13 | COc1cc(-c2cn(C)c(=O)c3cnccc23)cc(OC)c1CN(C)CCCn1cc(CN2CC(Oc3ccc4c(c3)C(=O)N(C3CCC(=O)NC3=O)C4=O)C2)nn1 (centres unmarked) [Compound D285] | 100 to 1000 nM
14 | COc1cc(-c2cn(C)c(=O)c3cnccc23)cc(OC)c1CN1CC(CC(=O)N2CCC3(C2)CN(c2ccc4c(c2)C(=O)N(C2CCC(=O)NC2=O)C4=O)C3)C1 (centres unmarked) [Compound D193] | 100 to 1000 nM
15 | COc1cc(-c2cn(C)c(=O)c3cnccc23)cc(OC)c1CN1CC2(CCN(CC#Cc3ccc4c(c3)C(=O)N(C3CCC(=O)NC3=O)C4=O)C2)C1 (centres unmarked) [Compound D306] | < 10 nM
16 | COc1cc(-c2cn(C)c(=O)c3cnccc23)cc(OC)c1CN(C)CCOCCOCCNc1cccc2nc(C)n(C3CCC(=O)NC3=O)c(=O)c12 (centres unmarked) [DD3] | > 1000 nM
17 | COc1cc(-c2cc(C#N)c(=O)n(C)c2)cc(OC)c1CN1CC(CN2CCC3(CC2)CN(c2ccc4c(c2)C(=O)N(C2CCC(=O)NC2=O)C4=O)C3)C1 (centres unmarked) [Compound D352] | > 1000 nM
18 | COc1cc(-c2cn(C)c(=O)c3cnccc23)cc(OC)c1CN1CC(CC(=O)N2CCCC3(CC(Oc4ccc5c(c4)C(=O)N([C@@H]4CCC(=O)NC4=O)C5=O)C3)C2)C1 (some centres unmarked) [Compound D264] | 10 to 100 nM
19 | COc1cc(-c2cc(C)c(=O)n(C)c2)cc(OC)c1CN1CCC(CCN2CCN(C3CCC(=O)NC3=O)C(=O)C2)CC1 (centres unmarked) [Compound D334] | > 1000 nM
20 | COc1cc(-c2cn(C)c(=O)c3cnccc23)cc(OC)c1CN(C)CCCCN1CC2(CCC(Oc3ccc4c(c3)C(=O)N(C3CCC(=O)NC3=O)C4=O)C2)C1 (centres unmarked) [Compound D259] | < 10 nM
21 | COc1cc(-c2cn(C)c(=O)c(C#N)c2C)cc(OC)c1CN1CC(CN2CCC3(CC2)CN(c2ccc4c(c2)C(=O)N(C2CCC(=O)NC2=O)C4=O)C3)C1 (centres unmarked) [Compound D351] | > 1000 nM
22 | COc1cc(-c2cn(C)c(=O)c3cnccc23)cc(OC)c1Cn1cc(COC2CN(c3ccc4c(c3)C(=O)N(C3CCC(=O)NC3=O)C4=O)C2)nn1 (centres unmarked) [Compound D271] | < 10 nM
23 | COc1cc(-c2cn(C)c(=O)c3cnccc23)cc(OC)c1CN(C)CCCCN1CC2(C1)CN(c1ccc3c(c1)C(=O)N(C1CCC(=O)NC1=O)C3=O)C2 (centres unmarked) [Compound D254] | < 10 nM
24 | COc1cc(-c2cn(C)c(=O)c3cnccc23)cc(OC)c1CN1CCN(CCCC#Cc2ccc3c(c2)C(=O)N(C2CCC(=O)NC2=O)C3=O)CC1 (centres unmarked) [Compound D214] | < 10 nM
25 | CNC(=O)NCc1cc(-c2cc(OC)c(CN3CC(CN4CCC5(CC4)CN(c4ccc6c(c4)C(=O)N(C4CCC(=O)NC4=O)C6)C5)C3)c(OC)c2)cn(C)c1=O (centres unmarked) [Compound D364] | 100 to 1000 nM
26 | COc1cc(-c2cn(C)c(=O)c3cnccc23)cc(OC)c1CN1CCC(n2cc(COc3ccc4c(c3)C(=O)N(C3CCC(=O)NC3=O)C4=O)cn2)CC1 (centres unmarked) [Compound D324] | < 10 nM
27 | COc1cc(-c2cn(C)c(=O)c3cnncc23)cc(OC)c1CN1CCC(CN2CCC3(CC2)CC(Oc2ccc4c(c2)C(=O)N(C2CCC(=O)NC2=O)C4)C3)CC1 (centres unmarked) [Compound D368] | < 10 nM

same assay, conditions: Table 5C; SYO-1 cells expressing 3×FLAG-NLuc-BRD9, 6 hours

Row | SMILES | IC50
28 | COc1cc(-c2cc(C)c(=O)n(C)c2)cc(OC)c1CN1CC(C#Cc2ccc3c(c2)C(=O)N(C2CCC(=O)NC2=O)C3)C1C (centres unmarked) [Compound D453] | < 10 nM
29 | COc1cc(-c2cc(C)c(=O)n(C)c2)cc(OC)c1CN1CC(C)(C#Cc2ccc3c(c2)C(=O)N(C2CCC(=O)NC2=O)C3)C1 (centres unmarked) [Compound D450] | < 10 nM

same assay, conditions: Table 5C; SYO-1 cells expressing 3×FLAG-NLuc-BRD9, 6 hours; read-out: SYO1 BRD9-NanoLuc degradation IC50

Row | SMILES | DC50
30 | COc1cc(-c2cn(C)c(=O)c3cn(C)nc23)cc(OC)c1CN1CCC(CN2CCC3(CC2)CN(c2ccc4c(c2)C(=O)N(C2CCC(=O)NC2=O)C4)C3)CC1 (centres unmarked) [Compound D405] | < 10 nM
31 | C/C=C/Cn1cc(-c2cc(OC)c(CN3CCN(c4ccc5c(c4)C(=O)N(C4CCC(=O)NC4=O)C5)CC3)c(OC)c2)c2cc(C)[nH]c2c1=O (centres unmarked) [Compound D468] | > 1000 nM
32 | COc1cc(-c2cn(C)c(=O)c3cn(C)nc23)cc(OC)c1CN1CCC2(CC1)CN(c1ccc3c(c1)C(=O)N(C1CCC(=O)NC1=O)C3)C2 (centres unmarked) [Compound D416] | < 10 nM
33 | COc1cc(-c2cn(C)c(=O)c3cn(C)nc23)cc(OC)c1CN1CCC2(CC1)CN(c1ccc3c(c1)C(=O)N(C1CCC(=O)NC1=O)C3=O)C2 (centres unmarked) [Compound D415] | < 10 nM
34 | COc1cc(-c2cn(C)c(=O)c3cnn(C)c23)cc(OC)c1CN1CCC2(CC1)CN(c1ccc3c(c1)C(=O)N(C1CCC(=O)NC1=O)C3=O)C2 (centres unmarked) [Compound D413] | < 10 nM
35 | COc1cc(-c2cn(C)c(=O)c3cnccc23)cc(OC)c1CN1CCC2(CC1)CN(c1cncc(C(=O)NC3CCC(=O)NC3=O)n1)C2 (centres unmarked) [Compound D473] | > 1000 nM
